Source: patent publication US20240092835A1, “NOVEL PEPTIDES CAPABLE OF ALTERING NK CELL ACTIVITY” (Massachusetts Institute of Technology, priority 2022, published 2024)

Key:
HLA-E = target: T1, HLA-E (Homo sapiens, UniProt P13747); assay: HLA-E surface stabilization assay with RMA-S/HLA-E cells; format: cell-based; conditions: 30 μM peptide, 16 hours; for HLA-E surface expression stability (GeoMFI): anti-HLA-E antibody
T1 construct: expressed in transfected cells; host or cells: RMA-S/HLA-E cells (antigen processing-defective lymphoma cell line)
Description: HLA-E surface expression was assessed by measuring geometric mean fluorescence intensity (GeoMFI) in RMA-S cells following immunofluorescence staining with an anti-HLA-E antibody (Table 14). Increased GeoMFI was indicative of increased HLA-E surface expression stability following novel peptide exposures (FIG. 3).

NKG2A−/NKG2C− NK cells = assay: NK cell activation markers in control NKG2A-/NKG2C- NK cells incubated with peptide and K562 expressing HLA-E; format: cell-based, human
Description: (§1) A human immortalized myelogenous leukemia cell line (K562), which expresses HLA-E was incubated with novel peptides (Table 1) derived from the human proteome or human cytomegalovirus proteome. […] Controls assessments were also performed using NKG2A−/NKG2C− cells (Tables 10-13). Inhibition was indicated by a decrease in percent cells positive for cell surface markers, while activation was indicated by an increase in percent cells positive for cell surface markers.

NKG2A+/NKG2C− NK cells = assay: NK cell activation markers in NKG2A+/NKG2C- NK cells incubated with peptide and K562 expressing HLA-E (inhibition); format: cell-based, human; conditions: for percentage of CCL3+ NK cells / percentage of CD107a+ NK cells / percentage of IFNG+ NK cells / percentage of TNF+ NK cells: NKG2A+/NKG2C- NK cells, K562/HLA-E
Description: as §1

NKG2A−/NKG2C+ NK cells = assay: NK cell activation markers in NKG2A-/NKG2C+ NK cells incubated with peptide and K562 expressing HLA-E (activation); format: cell-based, human; conditions: for percentage of CCL3+ NK cells / percentage of CD107+ NK cells / percentage of IFNG+ NK cells / percentage of TNF+ NK cells: NKG2A-/NKG2C+ NK cells, K562/HLA-E
Description: as §1

[1] = K562 expressing HLA-E, CD107a, IFNG, TNF, CCL3

T1 sequence (P13747 22-358): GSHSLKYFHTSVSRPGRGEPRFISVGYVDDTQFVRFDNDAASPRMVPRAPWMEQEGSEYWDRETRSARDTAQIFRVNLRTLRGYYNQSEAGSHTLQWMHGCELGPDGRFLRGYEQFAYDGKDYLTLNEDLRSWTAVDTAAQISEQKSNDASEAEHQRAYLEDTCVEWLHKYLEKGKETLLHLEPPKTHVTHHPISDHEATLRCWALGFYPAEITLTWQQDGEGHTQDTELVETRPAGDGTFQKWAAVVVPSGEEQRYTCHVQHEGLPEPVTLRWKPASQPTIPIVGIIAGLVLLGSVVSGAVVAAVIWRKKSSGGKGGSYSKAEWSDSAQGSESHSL
T1 sequence (P61769 21-119 partner): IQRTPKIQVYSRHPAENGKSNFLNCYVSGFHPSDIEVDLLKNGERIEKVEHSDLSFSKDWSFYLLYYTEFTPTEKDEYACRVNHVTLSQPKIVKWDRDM

FLPNRSLLF [human8, peptide SLC52A3 354-362 derived from the human proteome]
HLA-E surface expression stability (GeoMFI) (HLA-E; Trial 1): 1066 GeoMFI
HLA-E surface expression stability (GeoMFI) (HLA-E; Trial 2): 813 GeoMFI
HLA-E surface expression stability (GeoMFI) (HLA-E; Trial 3): 1049 GeoMFI
HLA-E surface expression stability (GeoMFI) (HLA-E; Trial 4): 1654 GeoMFI
HLA-E surface expression stabilization strength, approximate GeoMFI (HLA-E; approximate value): approximately 1×10^3 GeoMFI
percentage CCL3+ NK cells (NKG2A−/NKG2C− NK cells; Trial 1): 33.5%
percentage CD107+ NK cells (NKG2A−/NKG2C− NK cells; Trial 1): 27.7%
percentage TNF+ NK cells (NKG2A−/NKG2C− NK cells; Trial 1): 4.82%
percentage of IFNG+ NK cells (NKG2A−/NKG2C− NK cells; Trial 1): 14.7%
percentage CCL3+ NK cells (NKG2A−/NKG2C− NK cells; Trial 2): 60.3%
percentage CD107+ NK cells (NKG2A−/NKG2C− NK cells; Trial 2): 36.2%
percentage TNF+ NK cells (NKG2A−/NKG2C− NK cells; Trial 2): 10.5%
percentage of IFNG+ NK cells (NKG2A−/NKG2C− NK cells; Trial 2): 28.8%
percentage CCL3+ NK cells (NKG2A−/NKG2C− NK cells; Trial 3): 52.4%
percentage CD107+ NK cells (NKG2A−/NKG2C− NK cells; Trial 3): 47.3%
percentage TNF+ NK cells (NKG2A−/NKG2C− NK cells; Trial 3): 16.5%
percentage of IFNG+ NK cells (NKG2A−/NKG2C− NK cells; Trial 3): 38%
percentage CCL3+ NK cells (NKG2A−/NKG2C− NK cells; Trial 4): 32%
percentage CD107+ NK cells (NKG2A−/NKG2C− NK cells; Trial 4): 28.6%
percentage TNF+ NK cells (NKG2A−/NKG2C− NK cells; Trial 4): 9.61%
percentage of IFNG+ NK cells (NKG2A−/NKG2C− NK cells; Trial 4): 18.6%
percentage CCL3+ NK cells (NKG2A−/NKG2C− NK cells; Trial 5): 29.2%
percentage CD107+ NK cells (NKG2A−/NKG2C− NK cells; Trial 5): 20.2%
percentage TNF+ NK cells (NKG2A−/NKG2C− NK cells; Trial 5): 6.07%
percentage of IFNG+ NK cells (NKG2A−/NKG2C− NK cells; Trial 5): 14.2%
percentage CCL3+ NK cells (NKG2A−/NKG2C− NK cells; Trial 6): 24.8%
percentage CD107+ NK cells (NKG2A−/NKG2C− NK cells; Trial 6): 19.3%
percentage TNF+ NK cells (NKG2A−/NKG2C− NK cells; Trial 6): 3.78%
percentage of IFNG+ NK cells (NKG2A−/NKG2C− NK cells; Trial 6): 10.9%
effect on NKG2A+/NKG2C− NK cell inhibition (in words) (NKG2A+/NKG2C− NK cells; [1]): mild inhibitory effects
percentage of CCL3+ NK cells (NKG2A+/NKG2C− NK cells; Trial 1): 39.5%
percentage of CD107a+ NK cells (NKG2A+/NKG2C− NK cells; Trial 1): 19.1%
percentage of IFNG+ NK cells (NKG2A+/NKG2C− NK cells; Trial 1): 5.56%
percentage of TNF+ NK cells (NKG2A+/NKG2C− NK cells; Trial 1): 1.84%
percentage of CCL3+ NK cells (NKG2A+/NKG2C− NK cells; Trial 2): 56%
percentage of CD107a+ NK cells (NKG2A+/NKG2C− NK cells; Trial 2): 26.4%
percentage of IFNG+ NK cells (NKG2A+/NKG2C− NK cells; Trial 2): 10.5%
percentage of TNF+ NK cells (NKG2A+/NKG2C− NK cells; Trial 2): 4.8%
percentage of CCL3+ NK cells (NKG2A+/NKG2C− NK cells; Trial 3): 38.2%
percentage of CD107a+ NK cells (NKG2A+/NKG2C− NK cells; Trial 3): 27.5%
percentage of IFNG+ NK cells (NKG2A+/NKG2C− NK cells; Trial 3): 14.7%
percentage of TNF+ NK cells (NKG2A+/NKG2C− NK cells; Trial 3): 6.96%
percentage of CCL3+ NK cells (NKG2A+/NKG2C− NK cells; Trial 4): 32.8%
percentage of CD107a+ NK cells (NKG2A+/NKG2C− NK cells; Trial 4): 28.2%
percentage of IFNG+ NK cells (NKG2A+/NKG2C− NK cells; Trial 4): 12.7%
percentage of TNF+ NK cells (NKG2A+/NKG2C− NK cells; Trial 4): 7.59%
percentage of CCL3+ NK cells (NKG2A+/NKG2C− NK cells; Trial 5): 33.3%
percentage of CD107a+ NK cells (NKG2A+/NKG2C− NK cells; Trial 5): 17.7%
percentage of IFNG+ NK cells (NKG2A+/NKG2C− NK cells; Trial 5): 7.1%
percentage of TNF+ NK cells (NKG2A+/NKG2C− NK cells; Trial 5): 3.6%
percentage of CCL3+ NK cells (NKG2A+/NKG2C− NK cells; Trial 6): 27.1%
percentage of CD107a+ NK cells (NKG2A+/NKG2C− NK cells; Trial 6): 20%
percentage of IFNG+ NK cells (NKG2A+/NKG2C− NK cells; Trial 6): 6.74%
percentage of TNF+ NK cells (NKG2A+/NKG2C− NK cells; Trial 6): 4.07%
effect on NKG2A−/NKG2C+ NK cell activation (in words) (NKG2A−/NKG2C+ NK cells; [1]): strong activating effects
percentage of CCL3+ NK cells (NKG2A−/NKG2C+ NK cells; Trial 1): 75.5%
percentage of CD107+ NK cells (NKG2A−/NKG2C+ NK cells; Trial 1): 73.7%
percentage of IFNG+ NK cells (NKG2A−/NKG2C+ NK cells; Trial 1): 58.6%
percentage of TNF+ NK cells (NKG2A−/NKG2C+ NK cells; Trial 1): 45.1%
percentage of CCL3+ NK cells (NKG2A−/NKG2C+ NK cells; Trial 2): 89%
percentage of CD107+ NK cells (NKG2A−/NKG2C+ NK cells; Trial 2): 82.1%
percentage of IFNG+ NK cells (NKG2A−/NKG2C+ NK cells; Trial 2): 74.8%
percentage of TNF+ NK cells (NKG2A−/NKG2C+ NK cells; Trial 2): 64%
percentage of CCL3+ NK cells (NKG2A−/NKG2C+ NK cells; Trial 3): 84.1%
percentage of CD107+ NK cells (NKG2A−/NKG2C+ NK cells; Trial 3): 84.3%
percentage of IFNG+ NK cells (NKG2A−/NKG2C+ NK cells; Trial 3): 74.5%
percentage of TNF+ NK cells (NKG2A−/NKG2C+ NK cells; Trial 3): 63.7%
percentage of CCL3+ NK cells (NKG2A−/NKG2C+ NK cells; Trial 4): 65.3%
percentage of CD107+ NK cells (NKG2A−/NKG2C+ NK cells; Trial 4): 64.8%
percentage of IFNG+ NK cells (NKG2A−/NKG2C+ NK cells; Trial 4): 54%
percentage of TNF+ NK cells (NKG2A−/NKG2C+ NK cells; Trial 4): 43.7%
percentage of CCL3+ NK cells (NKG2A−/NKG2C+ NK cells; Trial 5): 74.6%
percentage of CD107+ NK cells (NKG2A−/NKG2C+ NK cells; Trial 5): 70.7%
percentage of IFNG+ NK cells (NKG2A−/NKG2C+ NK cells; Trial 5): 62.3%
percentage of TNF+ NK cells (NKG2A−/NKG2C+ NK cells; Trial 5): 57.1%
percentage of CCL3+ NK cells (NKG2A−/NKG2C+ NK cells; Trial 6): 57%
percentage of CD107+ NK cells (NKG2A−/NKG2C+ NK cells; Trial 6): 53.1%
percentage of IFNG+ NK cells (NKG2A−/NKG2C+ NK cells; Trial 6): 43.8%
percentage of TNF+ NK cells (NKG2A−/NKG2C+ NK cells; Trial 6): 31.7%
